From patent US6677460B1, “Aromatic carboxylic acid bicyclic sulfur compounds” (Idemitsu Kosan Company, Limited, priority 1993, dated 2004)

Legend:
Format in all cases: in vivo
barnyardgrass = experiment: Foliar treatment test (7); conditions: 20th day after spraying
Method: (§1) 90 Parts by weight of the above carrier and 10 parts by weight of each of Compounds obtained in the above Preparation Examples were uniformly pulverized and mixed to obtain herbicides. Further, for Herbicide Comparative Examples, comparative herbicides were prepared by uniformly pulverizing and mixing 90 parts by weight of the above carrier and 10 parts by weight of each of the following Compounds x, y, A, B and C.
(§2) (7) Biological Test (Foliar Treatment Test, Herbicide Examples 43-47 and Comparative Examples 11 and 12)
(§3) Seeds of weeds such as large crabgrass, barnyardgrass, green foxtail, cocklebur, velvetleaf and slender amaranth and seeds of corn, wheat and barley were sown in 1/5,000-are Wagner pots filled with upland soil, and covered with upland soil. The seeds were grown in a greenhouse, and at the stage of 1 to 2 leaves of these plants, a predetermined amount of the herbicide prepared in the above (1) was suspended in water and uniformly sprayed onto leaf and stalk portions at a rate of 200 liter/10 ares. Thereafter, the plants were grown in the greenhouse, and on the 20th day after the spraying treatment, the herbicide was evaluated for herbicidal efficacy.
(§4) The herbicidal efficacy and phytotoxcity to crops were shown on the basis of the following ratings.
(§5) The ratio of remaining plant weight to non-treated was determined on the basis of the ratio of remaining plant weight to non-treated=(remaining plant weight in treated plot/remaining plant weight in non-treated plot)×100. This is also applicable to biological tests hereinafter.

cocklebur [1] = experiment: Foliar treatment test (7); conditions: 20th day after spraying
Method: as §1, §2, §3, §4, §5

green foxtail [2] = experiment: Foliar treatment test (7); conditions: 20th day after spraying
Method: as §1, §2, §3, §4, §5

large crabgrass [3] = experiment: Foliar treatment test (7); conditions: 20th day after spraying
Method: as §1, §2, §3, §4, §5

slender amaranth [4] = experiment: Foliar treatment test (7); conditions: 20th day after spraying
Method: as §1, §2, §3, §4, §5

velvetleaf [5] = experiment: Foliar treatment test (7); conditions: 20th day after spraying
Method: as §1, §2, §3, §4, §5

barnyard grass [6] = experiment: Upland soil treatment test (8); conditions: 20th day after spraying
Method: as §1
(§6) (8) Biological Test (Upland Soil Treatment Test, Herbicide Examples 48-52 and Herbicide Comparative Examples 13 and 14)
(§7) Seeds of weeds such as large crabgrass, barnyard brass, green foxtail, cocklebur, velvetleaf and slender amarnth and seeds of corn, wheat and barley were sown in 1/5,000-are Wagner pots filled with upland soil, and covert with upland soil. Then, a predetermined amount of the herbicide prepared in the above (1) was suspended in water and uniformly sprayed onto the soil surface. Thereafter, the plant were grown in the greenhouse, and on the 20th day after the spraying treatment, the herbicide was evaluated for herbicidal efficacy.
(§8) The herbicidal efficacy and the phytotoxicity to crops are shown on the basis of the ratings described in (2) Foliar treatment test.

cocklebur [7] = experiment: Upland soil treatment test (8); conditions: 20th day after spraying
Method: as §1, §6, §7, §8

green foxtail [8] = experiment: Upland soil treatment test (8); conditions: 20th day after spraying
Method: as §1, §6, §7, §8

large crabgrass [9] = experiment: Upland soil treatment test (8); conditions: 20th day after spraying
Method: as §1, §6, §7, §8

slender amaranth [10] = experiment: Upland soil treatment test (8); conditions: 20th day after spraying
Method: as §1, §6, §7, §8

velvetleaf [11] = experiment: Upland soil treatment test (8); conditions: 20th day after spraying
Method: as §1, §6, §7, §8

barnyard grass [12] = experiment: Foliar treatment test (2); conditions: 20th day after treatment
Method: as §1
(§9) (2) Biological Test (Foliar Treatment Test, Herbicide Examples 1 and 2 and Herbicide Comparative Examples 1 and 2)
as §3, with “barnyard grass,” for “barnyardgrass,”, “1˜2” for “1 to 2”, “are.” for “ares.”, “on” for “on the”, “the” for “the spraying”
as §4, §5

cocklebur [13] = experiment: Foliar treatment test (2); conditions: 20th day after treatment
Method: as §1, §9
as §3, with “barnyard grass,” for “barnyardgrass,”, “1˜2” for “1 to 2”, “are.” for “ares.”, “on” for “on the”, “the” for “the spraying”
as §4, §5

green foxtail [14] = experiment: Foliar treatment test (2); conditions: 20th day after treatment
Method: as §1, §9
as §3, with “barnyard grass,” for “barnyardgrass,”, “1˜2” for “1 to 2”, “are.” for “ares.”, “on” for “on the”, “the” for “the spraying”
as §4, §5

large crabgrass [15] = experiment: Foliar treatment test (2); conditions: 20th day after treatment
Method: as §1, §9
as §3, with “barnyard grass,” for “barnyardgrass,”, “1˜2” for “1 to 2”, “are.” for “ares.”, “on” for “on the”, “the” for “the spraying”
as §4, §5

slender amaranth [16] = experiment: Foliar treatment test (2); conditions: 20th day after treatment
Method: as §1, §9
as §3, with “barnyard grass,” for “barnyardgrass,”, “1˜2” for “1 to 2”, “are.” for “ares.”, “on” for “on the”, “the” for “the spraying”
as §4, §5

velvetleaf [17] = experiment: Foliar treatment test (2); conditions: 20th day after treatment
Method: as §1, §9
as §3, with “barnyard grass,” for “barnyardgrass,”, “1˜2” for “1 to 2”, “are.” for “ares.”, “on” for “on the”, “the” for “the spraying”
as §4, §5

barnyard grass [18] = experiment: Upland soil treatment test (3); conditions: 20th day after treatment
Method: as §1
(§10) (3) Biological Test (Upland Soil Treatment Test, Herbicide Examples 3 and 4 and Herbicide Comparative Examples 3 and 4)
(§11) Seeds of weeds such as large crabgrass, barnyardgrass, green foxtail, cocklebur, velvetleaf and slender amaranth and seeds of corn, wheat and barley were sown in 1/5,000-are Wagner pots filled with upland soil, and covered with upland soil. Then, a predetermined amount of the herbicide prepared in the above (1) was suspended in water and uniformly sprayed onto the soil surface. Thereafter, the plants were grown in the greenhouse, and on 20th day after the treatment, the herbicide was evaluated for herbicidal efficacy.
as §8

cocklebur [19] = experiment: Upland soil treatment test (3); conditions: 20th day after treatment
Method: as §1, §10, §11, §8

green foxtail [20] = experiment: Upland soil treatment test (3); conditions: 20th day after treatment
Method: as §1, §10, §11, §8

large crabgrass [21] = experiment: Upland soil treatment test (3); conditions: 20th day after treatment
Method: as §1, §10, §11, §8

slender amaranth [22] = experiment: Upland soil treatment test (3); conditions: 20th day after treatment
Method: as §1, §10, §11, §8

velvetleaf [23] = experiment: Upland soil treatment test (3); conditions: 20th day after treatment
Method: as §1, §10, §11, §8
Also: ranges in brackets are in %.

Compound: CCn1ncc(C(=O)c2cc(C)c3c(c2C)C=CCS3)c1O [Compound 47-1, 5,8-dimethyl-6-(1-ethyl-5-hydroxypyrazol-4-yl)carbonyl-3,4-dehydrothiochroman]
- Herbicidal Efficacy barnyard grass (barnyardgrass; 300 g a.i./hectare): 0 (81-100)
- Herbicidal Efficacy cocklebur (cocklebur [1]; 300 g a.i./hectare): 5 (0)
- Herbicidal Efficacy green foxtail (green foxtail [2]; 300 g a.i./hectare): 0 (81-100)
- Herbicidal Efficacy large crabgrass (large crabgrass [3]; 300 g a.i./hectare): 0 (81-100)
- Herbicidal Efficacy slender amaranth (slender amaranth [4]; 300 g a.i./hectare): 0 (81-100)
- Herbicidal Efficacy velvetleaf (velvetleaf [5]; 300 g a.i./hectare): 4 (1-20)
- Herbicidal Efficacy barnyard grass (barnyard grass [6]; 300 g a.i./hectare): 0 (81-100)
- Herbicidal Efficacy cocklebur (cocklebur [7]; 300 g a.i./hectare): 0 (81-100)
- Herbicidal Efficacy green foxtail (green foxtail [8]; 300 g a.i./hectare): 0 (81-100)
- Herbicidal Efficacy large crabgrass (large crabgrass [9]; 300 g a.i./hectare): 0 (81-100)
- Herbicidal Efficacy slender amaranth (slender amaranth [10]; 300 g a.i./hectare): 5 (0)
- Herbicidal Efficacy velvetleaf (velvetleaf [11]; 300 g a.i./hectare): 0 (81-100)

Compound: CCn1ncc(C(=O)c2ccc(S(C)(=O)=O)cc2C)c1O [y, reference compound]
- Herbicidal Efficacy barnyard grass (barnyard grass [12]; dosage 3 g a.i./are): 0 (81-100)
- Herbicidal Efficacy cocklebur (cocklebur [13]; dosage 3 g a.i./are): 3 (21-40)
- Herbicidal Efficacy green foxtail (green foxtail [14]; dosage 3 g a.i./are): 0 (81-100)
- Herbicidal Efficacy large crabgrass (large crabgrass [15]; dosage 3 g a.i./are): 0 (81-100)
- Herbicidal Efficacy slender amaranth (slender amaranth [16]; dosage 3 g a.i./are): 2 (41-60)
- Herbicidal Efficacy velvetleaf (velvetleaf [17]; dosage 3 g a.i./are): 3 (21-40)
- Herbicidal Efficacy barnyard grass (barnyard grass [18]; dosage 3 g a.i./are): 2 (41-60)
- Herbicidal Efficacy cocklebur (cocklebur [19]; dosage 3 g a.i./are): 0 (81-100)
- Herbicidal Efficacy green foxtail (green foxtail [20]; dosage 3 g a.i./are): 2 (41-60)
- Herbicidal Efficacy large crabgrass (large crabgrass [21]; dosage 3 g a.i./are): 3 (21-40)
- Herbicidal Efficacy slender amaranth (slender amaranth [22]; dosage 3 g a.i./are): 0 (81-100)
- Herbicidal Efficacy velvetleaf (velvetleaf [23]; dosage 3 g a.i./are): 0 (81-100)
- Herbicidal Efficacy barnyard grass (barnyardgrass; 300 g a.i./hectare): 0 (81-100)
- Herbicidal Efficacy cocklebur (cocklebur [1]; 300 g a.i./hectare): 3 (21-40)
- Herbicidal Efficacy green foxtail (green foxtail [2]; 300 g a.i./hectare): 0 (81-100)
- Herbicidal Efficacy large crabgrass (large crabgrass [3]; 300 g a.i./hectare): 0 (81-100)
- Herbicidal Efficacy slender amaranth (slender amaranth [4]; 300 g a.i./hectare): 2 (41-60)
- Herbicidal Efficacy velvetleaf (velvetleaf [5]; 300 g a.i./hectare): 3 (21-40)
- Herbicidal Efficacy barnyard grass (barnyard grass [6]; 300 g a.i./hectare): 3 (21-40)
- Herbicidal Efficacy cocklebur (cocklebur [7]; 300 g a.i./hectare): 0 (81-100)
- Herbicidal Efficacy green foxtail (green foxtail [8]; 300 g a.i./hectare): 2 (41-60)
- Herbicidal Efficacy large crabgrass (large crabgrass [9]; 300 g a.i./hectare): 3 (21-40)
- Herbicidal Efficacy slender amaranth (slender amaranth [10]; 300 g a.i./hectare): 0 (81-100)
- Herbicidal Efficacy velvetleaf (velvetleaf [11]; 300 g a.i./hectare): 0 (81-100)

Compound: Pyrazolate [x, reference compound]
- Herbicidal Efficacy barnyard grass (barnyard grass [12]; dosage 10 g a.i./are): 0 (81-100)
- Herbicidal Efficacy cocklebur (cocklebur [13]; dosage 10 g a.i./are): 0 (81-100)
- Herbicidal Efficacy green foxtail (green foxtail [14]; dosage 10 g a.i./are): 0 (81-100)
- Herbicidal Efficacy large crabgrass (large crabgrass [15]; dosage 10 g a.i./are): 0 (81-100)
- Herbicidal Efficacy slender amaranth (slender amaranth [16]; dosage 10 g a.i./are): 1 (61-80)
- Herbicidal Efficacy velvetleaf (velvetleaf [17]; dosage 10 g a.i./are): 0 (81-100)
- Herbicidal Efficacy barnyard grass (barnyard grass [18]; dosage 10 g a.i./are): 0 (81-100)
- Herbicidal Efficacy cocklebur (cocklebur [19]; dosage 10 g a.i./are): 0 (81-100)
- Herbicidal Efficacy green foxtail (green foxtail [20]; dosage 10 g a.i./are): 0 (81-100)
- Herbicidal Efficacy large crabgrass (large crabgrass [21]; dosage 10 g a.i./are): 0 (81-100)
- Herbicidal Efficacy slender amaranth (slender amaranth [22]; dosage 10 g a.i./are): 0 (81-100)
- Herbicidal Efficacy velvetleaf (velvetleaf [23]; dosage 10 g a.i./are): 0 (81-100)
- Herbicidal Efficacy barnyard grass (barnyardgrass; 1000 g a.i./hectare): 0 (81-100)
- Herbicidal Efficacy cocklebur (cocklebur [1]; 1000 g a.i./hectare): 0 (81-100)
- Herbicidal Efficacy green foxtail (green foxtail [2]; 1000 g a.i./hectare): 0 (81-100)
- Herbicidal Efficacy large crabgrass (large crabgrass [3]; 1000 g a.i./hectare): 0 (81-100)
- Herbicidal Efficacy slender amaranth (slender amaranth [4]; 1000 g a.i./hectare): 0 (81-100)
- Herbicidal Efficacy velvetleaf (velvetleaf [5]; 1000 g a.i./hectare): 0 (81-100)
- Herbicidal Efficacy barnyard grass (barnyard grass [6]; 1000 g a.i./hectare): 0 (81-100)
- Herbicidal Efficacy cocklebur (cocklebur [7]; 1000 g a.i./hectare): 0 (81-100)
- Herbicidal Efficacy green foxtail (green foxtail [8]; 1000 g a.i./hectare): 0 (81-100)
- Herbicidal Efficacy large crabgrass (large crabgrass [9]; 1000 g a.i./hectare): 0 (81-100)
- Herbicidal Efficacy slender amaranth (slender amaranth [10]; 1000 g a.i./hectare): 1 (61-80)
- Herbicidal Efficacy velvetleaf (velvetleaf [11]; 1000 g a.i./hectare): 0 (81-100)

Compound: CCn1ncc(C(=O)c2cc(C)c3c(c2C)CCCS3)c1O [Compound 47-2, 5,8-dimethyl-6-(1-ethyl-5-hydroxypyrazol-4-yl)carbonylthiochroman]
- Herbicidal Efficacy barnyard grass (barnyardgrass; 300 g a.i./hectare): 2 (41-60)
- Herbicidal Efficacy cocklebur (cocklebur [1]; 300 g a.i./hectare): 5 (0)
- Herbicidal Efficacy green foxtail (green foxtail [2]; 300 g a.i./hectare): 5 (0)
- Herbicidal Efficacy large crabgrass (large crabgrass [3]; 300 g a.i./hectare): 5 (0)
- Herbicidal Efficacy slender amaranth (slender amaranth [4]; 300 g a.i./hectare): 5 (0)
- Herbicidal Efficacy velvetleaf (velvetleaf [5]; 300 g a.i./hectare): 5 (0)
- Herbicidal Efficacy barnyard grass (barnyard grass [6]; 300 g a.i./hectare): 5 (0)
- Herbicidal Efficacy cocklebur (cocklebur [7]; 300 g a.i./hectare): 0 (81-100)
- Herbicidal Efficacy green foxtail (green foxtail [8]; 300 g a.i./hectare): 4 (1-20)
- Herbicidal Efficacy large crabgrass (large crabgrass [9]; 300 g a.i./hectare): 1 (61-80)
- Herbicidal Efficacy slender amaranth (slender amaranth [10]; 300 g a.i./hectare): 5 (0)
- Herbicidal Efficacy velvetleaf (velvetleaf [11]; 300 g a.i./hectare): 5 (0)
